Reference: the supplement of paper PMC10307832

What was measured:
Assay in all cases: relative viability (nuclei count vs DMSO), 5 days (fraction); higher = more cells survive
[1] = compound: NC(=O)[C@@H](CCC(F)(F)F)N(Cc1ccc(-c2ncon2)cc1F)S(=O)(=O)c1ccc(Cl)cc1 [Avagacestat] + COc1cc2c(Oc3ccc(NC(=O)C4(C(=O)Nc5ccc(F)cc5)CC4)cc3F)ccnc2cc1OCCCN1CCOCC1 [Foretinib] (partner 0.25 µM)
In short: (§1)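 Nuclei were stained with Hoechst during a one-step fixation (final 0.05% Triton X-100, 1% formaldehyde, 1 ug/ml Hoechst) carried out 5 days after dosing, then counted on 4× images. The cells, lung cancer lines in 1536-well plates, had been dosed by pin tool the day after seeding with one drug alone or a fixed anchor-drug dose plus five library-drug doses (not always all listed) in √10 steps. Relative viability is the nuclei count in treated wells divided by that in vehicle wells, and each value is the median of duplicate plates.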

[2] = compound: NC(=O)[C@@H](CCC(F)(F)F)N(Cc1ccc(-c2ncon2)cc1F)S(=O)(=O)c1ccc(Cl)cc1 [Avagacestat] + Cc1cc(Nc2cc(N3CCN(C)CC3)nc(Sc3ccc(NC(=O)C4CC4)cc3)n2)n[nH]1 [Tozasertib] (partner 0.1 µM)
In short: as §1

[3] = compound: NC(=O)[C@@H](CCC(F)(F)F)N(Cc1ccc(-c2ncon2)cc1F)S(=O)(=O)c1ccc(Cl)cc1 [Avagacestat] + CCNC(=O)c1noc(-c2cc(C(C)C)c(O)cc2O)c1-c1ccc(CN2CCOCC2)cc1 [Luminespib] (partner 0.01 µM)
In short: as §1

[4] = compound: NC(=O)[C@@H](CCC(F)(F)F)N(Cc1ccc(-c2ncon2)cc1F)S(=O)(=O)c1ccc(Cl)cc1 [Avagacestat] + NC(=O)Nc1cc(-c2cccc(F)c2)sc1C(=O)N[C@H]1CCCNC1 [AZD7762] (partner 0.2 µM)
In short: as §1

Cell Line | relative viability ([1]; first compound 0.08 µM) | relative viability ([1]; first compound 0.253 µM) | relative viability ([1]; first compound 0.8 µM) | relative viability ([1]; first compound 2.53 µM) | relative viability ([1]; first compound 8 µM) | relative viability ([2]; first compound 0.08 µM) | relative viability ([2]; first compound 0.253 µM) | relative viability ([2]; first compound 0.8 µM) | relative viability ([2]; first compound 2.53 µM) | relative viability ([2]; first compound 8 µM) | relative viability ([3]; first compound 0.08 µM) | relative viability ([3]; first compound 0.253 µM) | relative viability ([3]; first compound 0.8 µM) | relative viability ([3]; first compound 2.53 µM) | relative viability ([3]; first compound 8 µM) | relative viability ([4]; first compound 0.08 µM) | relative viability ([4]; first compound 0.253 µM) | relative viability ([4]; first compound 0.8 µM) | relative viability ([4]; first compound 2.53 µM) | relative viability ([4]; first compound 8 µM)
201T | 1.18 | 1.45 | 1.06 | 0.944 | 1.1 | 0.967 | 1.06 | 0.922 | 0.843 | 0.9 | 1.11 | 1.05 | 1 | 0.964 | 1.04 | 0.65 | 0.712 | 0.607 | 0.56 | 0.587
A-427 | 1.37 | 1.18 | 1.12 | 1.11 | 1.08 | 0.203 | 0.185 | 0.206 | 0.198 | 0.198 | 0.91 | 1.13 | 1.05 | 0.81 | 0.821 | 0.752 | 0.753 | 0.703 | 0.619 | 0.68
ABC-1 | 1.16 | 1.06 | 1.15 | 1 | 1.06 | 0.164 | 0.16 | 0.178 | 0.187 | 0.179 | 0.387 | 0.583 | 0.801 | 0.359 | 0.555 | 0.864 | 1.02 | 0.895 | 0.94 | 0.664
BEN | 0.692 | 0.694 | 0.725 | 0.74 | 0.62 | 0.512 | 0.504 | 0.526 | 0.449 | 0.49 | 0.396 | 0.308 | 0.675 | 0.326 | 0.238 | 0.706 | 0.676 | 0.744 | 0.79 | 0.644
CAL-12T | 1.35 | 1.25 | 1.24 | 1.02 | 1.16 | 0.368 | 0.358 | 0.385 | 0.24 | 0.278 | 0.351 | 0.921 | 0.427 | 0.364 | 0.276 | 0.703 | 0.703 | 0.782 | 0.61 | 0.569
ChaGo-K-1 | 0.935 | 1 | 0.856 | 0.825 | 0.786 | 0.198 | 0.238 | 0.22 | 0.212 | 0.226 | 0.551 | 0.718 | 0.747 | 0.551 | 0.595 | 0.896 | 0.855 | 0.818 | 0.794 | 0.733
EKVX | 0.859 | 0.742 | 1.08 | 0.798 | 0.795 | 0.401 | 0.373 | 0.382 | 0.34 | 0.287 | 0.798 | 0.973 | 0.859 | 0.809 | 0.751 | 0.699 | 0.779 | 0.818 | 0.633 | 0.624
EMC-BAC-2 | 1.06 | 1.09 | 1.06 | 0.904 | 0.968 | 0.278 | 0.299 | 0.31 | 0.255 | 0.322 | 1.33 | 1.4 | 1.29 | 1.12 | 1.1 | 1.23 | 1.33 | 1.28 | 0.976 | 1.21
EPLC-272H | 0.72 | 0.662 | 0.825 | 0.602 | 0.661 | 0.186 | 0.48 | 0.152 | 0.249 | 0.203 | 0.21 | 0.267 | 0.139 | 0.153 | 0.304 | 0.268 | 0.233 | 0.244 | 0.169 | 0.156
H3255 | 0.857 | 0.913 | 0.934 | 0.891 | 0.949 | 0.529 | 0.55 | 0.825 | 0.556 | 0.693 | 1.02 | 0.951 | 0.941 | 1.05 | 0.847 | 1.02 | 0.988 | 1.22 | 0.928 | 0.775
HARA | 1.1 | 1.39 | 0.863 | 0.867 | 0.77 | 0.0944 | 0.0986 | 0.0937 | 0.0995 | 0.145 | 0.783 | 0.201 | 0.614 | 0.536 | 0.87 | 0.303 | 0.276 | 0.332 | 0.24 | 0.184
HCC-15 | 1.14 | 1.16 | 1.15 | 0.958 | 1.01 | 0.404 | 0.461 | 0.434 | 0.337 | 0.167 | 0.442 | 0.338 | 0.309 | 0.325 | 0.284 | 1.21 | 1.22 | 1.3 | 1.16 | 1.38
HCC-827 | 1.08 | 1.12 | 1.15 | 1 | 1.03 | 0.452 | 0.434 | 0.506 | 0.381 | 0.462 | 0.711 | 0.927 | 0.586 | 0.324 | 0.578 | 0.193 | 0.188 | 0.216 | 0.161 | 0.188
HOP-62 | 1.29 | 1.2 | 1.17 | 0.948 | 0.996 | 0.357 | 0.353 | 0.373 | 0.363 | 0.335 | 0.988 | 1.09 | 1.01 | 0.889 | 0.83 | 0.811 | 0.714 | 0.62 | 0.53 | 0.47
NCI-H522 | – | – | – | – | – | 0.559 | 0.593 | 0.579 | 0.517 | 0.479 | 1.08 | 1.12 | 1.03 | 1.21 | 1.15 | 0.768 | 0.82 | 0.807 | 0.843 | 0.985
